The numbers were not newly measured in patent US20040192715A1, “Methods of administering opioid antagonists and compositions thereof” (priority 2003, published 2004), which cites them from elsewhere.

One data set concerns mice. The following applies: parenteral administration to mice.
For data set [1] the following is noted: oral administration.

In the case of `O=C1CC[C@@]2(O)[C@H]3Cc4ccc(O)c5c4[C@@]2(CCN3CC2CC2)C1O5` (stereo partly drawn) [naltrexone, 17-(cyclopropylmethyl) -4,5-epoxy-3,14-dihydroxymorphinan-6-one], the protein binding result is “approximately 21%”. The analgesia entry with mice is “produce analgesia”. Also, the oral bioavailability in data set [1] is recorded as 5-40%.
